Earlier results in patent US20030040459A1, “Cleaning compositions” (Unilever Home & Pesonal Care USA, priority 2001, published 2003).

Details: for Water Solubility (g/100 g): at 20° C.

Row | Compound | Water Solubility (g/100 g) | Water Solubility (grams/100 grams water) (grams of solid to form a saturated solution in 100 grams of deionised water at 20° C.)
1 | O=BO[O-].[Na+] [Sodium perborate anhydrous] | 3.7 | 
2 | O=P(O)(O)OP(=O)(O)OP(=O)(O)O [Sodium tripolyphosphate anhydrous] | 15 | 
3 | NC(N)=O [Urea] |  | >100
